The target of one assay is leukotriene B4 receptors (Cavia porcellus, UniProt H0VYV8). The experiment in a line: biochemical. In kind it is binding, guinea-pig. To be noted: for pIC50: Table XIX, guinea-pig spleen membranes, tritium-labelled LTB4, read-out: IC50 Binding (Cheng).
For assay [1], the system named is guinea-pig pulmonary parenchyma. The assay is described as follows: L. Parenchyma: guinea-pig pulmonary parenchyma contraction antagonism induced by LTB4 (Sirois). In kind it is cell-based. To be noted: Cavia porcellus; Table XIX; guinea-pig pulmonary parenchyma contraction induced by LTB4; read-out: IC50 L. Parenchyma. The procedure:
Further, compounds of this invention are shown to be leukotriene B4 antagonists in the technique of guinea-pig pulmonary parenchyma contraction antagonism induced by LTB4 described by P. Sirois et al., Pharmacology, 31, 225-236 (1985). In this technique, products are active at concentrations of between about 1 to about 10,000 nM.

The pIC50 is the IC50 on a negative log10 scale, so that one unit is a factor of ten. Usually inhibition stands for the share of the control response that was lost under treatment.

pIC50: −log10 of the molar value.

Sequence of leukotriene B4 receptors (H0VYV8 1-348): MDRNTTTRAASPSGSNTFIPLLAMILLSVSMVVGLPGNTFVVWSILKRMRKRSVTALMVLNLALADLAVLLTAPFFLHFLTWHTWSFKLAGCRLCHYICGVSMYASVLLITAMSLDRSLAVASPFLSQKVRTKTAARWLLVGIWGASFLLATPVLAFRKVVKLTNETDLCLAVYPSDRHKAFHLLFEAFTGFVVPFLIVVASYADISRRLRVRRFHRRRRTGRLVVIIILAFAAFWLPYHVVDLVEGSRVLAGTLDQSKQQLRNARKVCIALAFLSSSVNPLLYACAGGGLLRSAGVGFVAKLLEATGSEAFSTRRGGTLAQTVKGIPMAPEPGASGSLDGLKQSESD

For `O=C(O)CCCCCOc1cc(-c2ccccc2)cc(-c2ccc(F)cc2)n1` [6-{[6-(4-fluorophenyl)-4-phenyl-2-pyridyl]oxy}hexanoic acid], the pIC50 at leukotriene B4 receptors was 7.52; in assay [1], 5.77.

Turning to `CC(C)(CCCCOc1nc(-c2ccccc2)cc(-c2ccccc2)n1)C(=O)O` [6-[(4,6-diphenyl-2-pyrimidyl)oxy]-2,2-dimethylhexanoic acid], the pIC50 was 8.00 at leukotriene B4 receptors and 6.00 in assay [1].

Take `CC(C)(CCCCOc1cc(-c2ccc(F)cc2)cc(-c2ccccc2)n1)C(=O)O` [2,2-dimethyl-6-{[4-(4-fluorophenyl)-6-phenyl-2-pyridyl]oxy}hexanoic acid]: the values for the pIC50 (at leukotriene B4 receptors; in assay [1]) were 8.15 and 6.52, respectively.

As to `CC(C)(CCCCOc1cc(-c2ccccc2)cc(-c2ccccc2F)n1)C(=O)O` [2,2-dimethyl-6-{[6-(2-fluorophenyl)-4-phenyl-2-pyridyl]oxy}hexanoic acid], the pIC50 on leukotriene B4 receptors is 8.30; in assay [1] it was 7.10.

Take `CC(C)(CCCCOc1cc(-c2ccc(N)cc2)cc(-c2ccccc2)n1)C(=O)O` [2,2-dimethyl-6-{[4-(4-aminophenyl)-6-phenyl-2-pyridyl]oxy}hexanoic acid]: the pIC50 was 8.00 on leukotriene B4 receptors and 9.00 in assay [1].

On to `O=C(O)CCCCCOc1cc(-c2cccc(F)c2)cc(-c2ccccc2)n1` [6-{[4-(3-fluorophenyl)-6-phenyl-2-pyridyl]oxy}hexanoic acid], for which the pIC50 is 8.52 on leukotriene B4 receptors and 6.70 in assay [1].

For `CC(CCCCOc1cc(-c2ccc3c(c2)OCO3)cc(-c2ccccc2)n1)C(=O)O` (centres unmarked) [2-methyl-6-{[4-(3,4-methylenedioxyphenyl)-6-phenyl-2-pyridyl]oxy}hexanoic acid], the pIC50 at leukotriene B4 receptors was 8.15; in assay [1], 8.60.

`NC(=O)CCCCCOc1cc(-c2ccccc2)cc(-c2ccccc2)n1` [6-[(4,6-diphenyl-2-pyridyl)oxy]hexanamide]: the pIC50 at leukotriene B4 receptors is 6.80; in assay [1] it was under 6.00.

For `CCC(CCCCOc1cc(-c2ccccc2)cc(-c2ccccc2)n1)C(=O)O` (centres unmarked) [2-ethyl-6-[(4,6-diphenyl-2-pyridyl)oxy]hexanoic acid], the negative logarithm of the IC50 (pIC50) is 8.52 on leukotriene B4 receptors and 7.15 in assay [1].

On to `COc1cccc(-c2cc(OCCCCC(C)C(=O)O)nc(-c3ccccc3)c2)c1` (centres unmarked) [2-methyl-6-{[4-(3-methoxyphenyl)-6-phenyl-2-pyridyl]oxy}hexanoic acid], for which, in assay [1], the pIC50 is 7.70.

As for `CC(CCCCOc1cc(-c2ccccc2)cc(-c2ccccc2)n1)C(=O)O` (centres unmarked) [2-methyl-6-[(4,6-diphenyl-2-pyridyl)oxy]hexanoic acid], the pIC50 on leukotriene B4 receptors was 8.40; in assay [1] it was 8.00.

Regarding `CC(C)(CCCCOc1cc(-c2ccccc2)cc(C(C)(C)C)n1)C(=O)O` [6-[(6-ter-butyl-4-phenyl-2-pyridyl)oxy]-2,2-dimethylhexanoic acid], the negative-log IC50 (pIC50) on leukotriene B4 receptors was 7.40; in assay [1], 6.00.

For the compound `O=C(O)CCCCCOc1cc(-c2ccccc2)cc(-c2cccs2)n1` [6-{[4-phenyl-6-(2-thienyl)-2-pyridyl]oxy}hexanoic acid], the pIC50 is 7.30 on leukotriene B4 receptors and 6.52 in assay [1].

On to `CN(C)c1ccc(-c2cc(OCCCCCC(=O)O)nc(-c3ccccc3)c2)cc1` [6-{[4-(4-dimethylaminophenyl)-6-phenyl-2-pyridyl]oxy}hexanoic acid], for which the pIC50 in assay [1] was 5.22.

For `CC(C)(C)c1cc(-c2ccccc2)cc(OCCCCCC(=O)O)n1` [6-[(6-ter-butyl-5-phenyl-2-pyridyl)oxy]hexanoic acid], the pIC50 at leukotriene B4 receptors is 6.52; in assay [1] it was 5.70.

As to `CC(C)(CCCCOc1cc(-c2ccccc2)cc(-c2ccsc2)n1)C(=O)O` [2,2-dimethyl-6-{[4-phenyl-6-(3-thienyl)-2-pyridyl]oxy}hexanoic acid], the pIC50 on leukotriene B4 receptors was 8.30; in assay [1], 7.00.

On to `COc1ccc(-c2cc(OCCCCCC(=O)O)nc(-c3ccc(Cl)cc3)c2)cc1` [6-{[6-(4-chlorophenyl)-4-(4-methoxyphenyl)-2-pyridyl]oxy}hexanoic acid], for which the figures for the pIC50 (on leukotriene B4 receptors; in assay [1]) were 5.92 and under 5.00, respectively.

On to `CC(C)(CCCCCOc1cc(-c2ccccc2)cc(-c2ccccc2)n1)C(=O)O` [2,2-dimethyl-7-[(4,6-diphenyl-2-pyridyl)oxy]heptanoic acid], for which, in assay [1], the pIC50 was 7.52.

With `CC(CCCCOc1cc(-c2ccccc2)cc(-c2ccccc2F)n1)C(=O)O` (centres unmarked) [2-methyl-6-{[6-(2-fluorophenyl)-4-phenyl-2-pyridyl]oxy}hexanoic acid], the figures for the pIC50 (at leukotriene B4 receptors; in assay [1]) were 8.40 and 8.22, respectively.

For `O=C(O)CCCCCOc1cc(-c2ccccc2)cc(-c2ccccc2F)n1` [6-{[6-(2-fluorophenyl)-4-phenyl-2-pyridyl]oxy}hexanoic acid], the negative logarithm of the IC50 (pIC50) on leukotriene B4 receptors was 8.52; in assay [1], 7.22.

With `O=C(O)CCCCCOc1cc(-c2ccccc2F)cc(-c2ccccc2)n1` [6-{[4-(2-fluorophenyl)-6-phenyl-2-pyridyl]oxy}hexanoic acid], the pIC50 in assay [1] was 5.77.

As to `CNc1ccc(-c2cc(OCCCCCC(=O)O)nc(-c3ccccc3)c2)cc1` [6-{[4-(4-methylaminophenyl)-6-phenyl-2-pyridyl]oxy}hexanoic acid], the pIC50 in assay [1] is 6.82.

For the compound `c1ccc(-c2cc(OCCCCCc3nn[nH]n3)nc(-c3ccccc3)c2)cc1` [5-{[5-(4,6-diphenyl-2-pyridyl)oxy]pentyl}-[1H]-tetrazole], the pIC50 in assay [1] is 8.00.

Turning to `COc1ccc(-c2cc(OCCCCC(C)C(=O)O)nc(-c3ccccc3)c2)cc1` (centres unmarked) [2-methyl-6-{[4-(4-methoxyphenyl)-6-phenyl-2-pyridyl]oxy}hexanoic acid], in assay [1], the pIC50 is 7.70.

In the case of `CC(CCCCOc1cc(-c2ccc(N)cc2)cc(-c2ccccc2)n1)C(=O)O` (centres unmarked) [2-methyl-6-{[4-(4-aminophenyl)-6-phenyl-2-pyridyl]oxy}hexanoic acid], in assay [1], the pIC50 was 7.70.

Regarding `Nc1ccc(-c2cc(OCCCCCC(=O)O)nc(-c3ccccc3)c2)cc1` [6-{[4-(4-aminophenyl)-6-phenyl-2-pyridyl]oxy}hexanoic acid], in assay [1], the pIC50 was 7.40.

Consider `CC(CCCCOc1cc(-c2ccc(Cl)cc2)c2ccccc2n1)C(=O)O` (centres unmarked) [2-methyl-6-{[4-(4-chlorophenyl)-2-quinolyl]oxy}hexanoic acid], for which, on leukotriene B4 receptors, the pIC50 was 7.52.

For the compound `CC(CCCCOc1cc(-c2cccc(Cl)c2)cc(-c2ccccc2)n1)C(=O)O` (centres unmarked) [2-methyl-6-{[4-(3-chlorophenyl)-6-phenyl-2-pyridyl]oxy}hexanoic acid], in assay [1], the negative-log IC50 (pIC50) is 6.00.

In the case of `O=C(O)CCCCCCCOc1cccc(-c2ccccc2)n1`, the pIC50 at leukotriene B4 receptors is 5.22.

As to `O=C(O)CCCCCOc1cc(-c2ccc(C(=O)O)cc2)cc(-c2ccccc2)n1` [6-{[6-phenyl-4-(4-carboxyphenyl)-2-pyridyl]oxy}hexanoic acid], the inhibition at 10 µM at leukotriene B4 receptors (read-out: Binding (Cheng) % Inhibition at 10 μM) stood at 32%.

`CC(CCCCOc1cc(-c2ccc(Cl)cc2)cc(-c2ccccc2)n1)C(=O)O` (centres unmarked) [2-methyl-6-{[4-(4-chlorophenyl)-6-phenyl-2-pyridyl]oxy}hexanoic acid]: the pIC50 in assay [1] is 7.15.

As for `CC(C)(CCCCOc1cc(-c2ccccc2)cc(-c2ccccc2)n1)C(=O)O` [2,2-dimethyl-6-[(4,6-diphenyl-2-pyridyl)oxy]hexanoic acid], the pIC50 in assay [1] is 8.00.

Turning to `COc1ccc(-c2cc(OCCCCC(C)C(=O)O)nc3ccccc23)cc1` (centres unmarked) [2-methyl-6-{[4-(4-methoxyphenyl)-2-quinolyl]oxy}hexanoic acid], on leukotriene B4 receptors, the pIC50 was 7.80.

As for `O=C(CCCOc1cc(-c2ccccc2)cc(-c2ccccc2)n1)Nc1ccccc1` [4-[(4,6-diphenyl-2-pyridyl)oxy]butanilide], the negative-log IC50 (pIC50) at leukotriene B4 receptors is under 6.00.

Take `O=C(O)CCCCCOc1nc(-c2ccccc2)cc(-c2ccccc2)n1` [6-[(4,6-diphenyl-2-pyrimidyl)oxy]hexanoic acid]: on leukotriene B4 receptors, the pIC50 was 6.82.

With `O=C(O)CCCCCOc1cc(-c2ccccc2)c2ccccc2n1` [6-[(4-phenyl-2-quinolyl)oxy]hexanoic acid], the pIC50 on leukotriene B4 receptors is 6.15.

For `O=C(O)CNC(=O)CCCOc1cc(-c2ccccc2)cc(-c2ccccc2)n1` [N-[4-(4,6-diphenyl-2-pyridyloxy)butanoyl]glycine], the pIC50 on leukotriene B4 receptors was 7.80.

Take `COc1ccc(-c2cc(-c3ccccc3)cc(OCCCCCC(=O)O)n2)cc1` [6-{[6-(4-methoxyphenyl)-4-phenyl-2-pyridyl]oxy}hexanoic acid]: on leukotriene B4 receptors, the negative logarithm of the IC50 (pIC50) is 6.00.

In the case of `Cc1ccc(-c2cc(OCCCCC(C)C(=O)O)nc(-c3ccccc3)c2)cc1` (centres unmarked) [2-methyl-6-{[4-(4-methylphenyl)-6-phenyl-2-pyridyl]oxy}hexanoic acid], the pIC50 in assay [1] was 7.70.

In the case of `O=C(O)CCCCCOc1cc(-c2ccccc2)cc(-c2ccccc2)c1` [6-(3,5-diphenyl-phenoxy)hexanoic acid], the pIC50 on leukotriene B4 receptors is 8.10.

With `CC(CCCCOc1cc(-c2ccccc2)c2ccccc2n1)C(=O)O` (centres unmarked) [2-methyl-6-[(4-phenyl-2-quinolyl)oxy]hexanoic acid], the pIC50 at leukotriene B4 receptors was 6.26.

Consider `CCC(C)(CCCCOc1cc(-c2ccccc2)c2ccccc2n1)C(=O)O` (centres unmarked) [2-ethyl-2-methyl-6-[(4-phenyl-2-quinolyl)oxy]hexanoic acid], for which the pIC50 at leukotriene B4 receptors is 6.96.

As to `CNc1ccc(-c2cc(OCCCCC(C)(C)C(=O)O)nc(-c3ccccc3)c2)cc1` [6-{[4-(4-methylaminophenyl)-6-phenyl-2-pyridyl]oxy}-2,2-dimethylhexanoic acid], the negative logarithm of the IC50 (pIC50) at leukotriene B4 receptors is 8.10.

For `O=C(O)CCCCCCOc1cc(-c2ccccc2)c2ccccc2n1` [7-[(4-phenyl-2-quinolyl)oxy]heptanoic acid], the pIC50 at leukotriene B4 receptors was 5.74.

As to `CC(C)(CCCCOc1cc(-c2ccc3c(c2)OCO3)cc(-c2ccccc2)n1)C(=O)O` [2,2-dimethyl-6-{[4-(3,4-methylenedioxyphenyl)-6-phenyl-2-pyridyl]oxy}hexanoic acid], the negative-log IC50 (pIC50) in assay [1] was 6.85.

Values taken from patent US5366982A (priority 1990, dated 1994).
